In ChEMBL document CHEMBL1201862, “PubChem BioAssay data set” (2004):
Active and inactive are the calls of the source.

Experiments:
[1] = Luminescence Cell-Based Dose Retest to Confirm Inhibitors of Cancer Stem Cells. [Related pubchem assays (depositor defined):AID2717, AID2721]; type: functional; conditions: Homo sapiens
[2] = cytotoxicity in HMLE control line with eGFP shRNA, dose response, counter-screen for HMLE_sh_ECad selective toxicity project, cell-based, HMLE_sh_eGFP, luminescence (AID 463074); type: functional, Homo sapiens;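 also: HMLE human mammary epithelial cells expressing control shRNA against eGFP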
[3] = inhibitors of intracellular T. cruzi replication, confirmation, NIH3T3 host cells, beta-gal luminescence (AID 2044); type: functional, cell-based;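 also: intracellular parasites grown in NIH/3T3 mouse fibroblasts as host cells; luminescent beta-galactosidase reporter signal from transgenic T. cruzi replicating inside host cells; inhibitors lower the luminescence signal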
[4] = cytotoxicity toward NIH3T3 fibroblasts, dose response, counter-screen, cell-based, ATP luminescence, mouse fibroblasts (AID 2010); type: functional;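 also: cells exposed to compound for about 90 hours before reading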
Beta-galactosidase = Beta-galactosidase (Escherichia coli, UniProt Q8VNN2); assay: beta-galactosidase enzyme inhibitors and activators, dose response, artefact control for CCR6 antagonist project, biochemical, E. coli enzyme, set 3 (AID 504712); type: functional
Apelin receptor = Apelin receptor (Homo sapiens, UniProt P35414); assay: APJ beta-arrestin recruitment antagonism, SAR follow-up, selectivity assay for CCR6 antagonist project, cell-based, luminescent, enzyme-fragment complementation (AID 588359); type: functional
Apelin receptor, sequence (P35414 whole entry, the tested form may be a part): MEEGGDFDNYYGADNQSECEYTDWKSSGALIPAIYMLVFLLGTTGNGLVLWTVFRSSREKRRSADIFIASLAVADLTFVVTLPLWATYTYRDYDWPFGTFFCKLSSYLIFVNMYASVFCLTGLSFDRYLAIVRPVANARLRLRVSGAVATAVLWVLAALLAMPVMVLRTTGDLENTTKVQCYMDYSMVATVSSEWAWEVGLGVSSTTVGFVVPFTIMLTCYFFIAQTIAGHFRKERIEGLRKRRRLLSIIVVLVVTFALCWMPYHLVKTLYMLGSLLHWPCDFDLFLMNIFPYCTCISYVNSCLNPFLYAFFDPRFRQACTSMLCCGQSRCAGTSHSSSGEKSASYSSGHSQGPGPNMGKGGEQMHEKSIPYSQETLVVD

Jurkat [5] = assay: antigen receptor-induced NF-kB inhibitors, dose response, Jurkat, luciferase reporter, luminescence, B- and T-cell (AID 489004); type: functional, cell-based; conditions: Homo sapiens;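 also: NF-kB luciferase reporter Jurkat cells stimulated with PMA plus ionomycin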
[6] = cytotoxicity in HEK-293T NF-kB-Luc cells, dose response, cytotoxicity control for B/T-cell NF-kB inhibitor project, cell-based, uHTS hits (AID 489019); type: functional;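 also: IC50 reflects cytotoxicity as loss of cell viability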
[7] = molecular target: T1, Calpain-2 catalytic subunit (Sus scrofa, UniProt P43367); assay: pig calpain II inhibitor potency, dose response, biochemical, fluorogenic peptide substrate (AID 1420); type: functional
T1 sequence (P43367 whole entry): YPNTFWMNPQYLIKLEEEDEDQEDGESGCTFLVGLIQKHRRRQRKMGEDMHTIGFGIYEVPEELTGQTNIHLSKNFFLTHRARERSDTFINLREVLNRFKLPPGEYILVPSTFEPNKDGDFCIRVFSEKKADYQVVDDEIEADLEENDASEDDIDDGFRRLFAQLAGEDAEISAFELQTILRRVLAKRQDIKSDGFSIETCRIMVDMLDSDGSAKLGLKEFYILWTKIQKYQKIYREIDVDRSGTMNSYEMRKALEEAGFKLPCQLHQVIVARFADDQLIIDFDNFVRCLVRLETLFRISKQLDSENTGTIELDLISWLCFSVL

[8] = molecular target: Intestinal-type alkaline phosphatase (Mus musculus, UniProt P24822); assay: PubChem AID 488785; type: functional
Intestinal-type alkaline phosphatase (Mus musculus, UniProt P24822), sequence (P24822 whole entry): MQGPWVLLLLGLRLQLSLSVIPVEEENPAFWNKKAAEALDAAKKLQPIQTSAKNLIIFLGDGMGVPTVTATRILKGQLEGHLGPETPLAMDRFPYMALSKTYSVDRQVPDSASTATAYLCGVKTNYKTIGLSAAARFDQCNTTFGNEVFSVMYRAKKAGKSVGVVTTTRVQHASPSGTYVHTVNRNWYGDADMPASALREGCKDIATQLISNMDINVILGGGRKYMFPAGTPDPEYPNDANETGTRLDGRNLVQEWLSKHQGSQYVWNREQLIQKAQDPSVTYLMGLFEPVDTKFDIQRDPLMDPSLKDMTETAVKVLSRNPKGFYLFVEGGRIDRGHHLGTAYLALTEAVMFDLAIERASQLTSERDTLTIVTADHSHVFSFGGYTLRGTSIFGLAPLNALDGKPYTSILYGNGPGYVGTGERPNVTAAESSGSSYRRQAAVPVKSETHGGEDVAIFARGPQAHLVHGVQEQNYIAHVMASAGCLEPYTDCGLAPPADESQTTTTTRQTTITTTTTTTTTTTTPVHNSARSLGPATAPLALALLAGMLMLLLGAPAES

[9] = molecular target: T2, Alkaline phosphatase, tissue-nonspecific isozyme (Homo sapiens, UniProt P05186); assay: TNAP enzyme inhibition by screening hits, dose response, selectivity assay for mouse IAP inhibitor project, biochemical, human TNAP, uHTS hits (AID 488906); type: functional
T2 sequence (P05186 whole entry): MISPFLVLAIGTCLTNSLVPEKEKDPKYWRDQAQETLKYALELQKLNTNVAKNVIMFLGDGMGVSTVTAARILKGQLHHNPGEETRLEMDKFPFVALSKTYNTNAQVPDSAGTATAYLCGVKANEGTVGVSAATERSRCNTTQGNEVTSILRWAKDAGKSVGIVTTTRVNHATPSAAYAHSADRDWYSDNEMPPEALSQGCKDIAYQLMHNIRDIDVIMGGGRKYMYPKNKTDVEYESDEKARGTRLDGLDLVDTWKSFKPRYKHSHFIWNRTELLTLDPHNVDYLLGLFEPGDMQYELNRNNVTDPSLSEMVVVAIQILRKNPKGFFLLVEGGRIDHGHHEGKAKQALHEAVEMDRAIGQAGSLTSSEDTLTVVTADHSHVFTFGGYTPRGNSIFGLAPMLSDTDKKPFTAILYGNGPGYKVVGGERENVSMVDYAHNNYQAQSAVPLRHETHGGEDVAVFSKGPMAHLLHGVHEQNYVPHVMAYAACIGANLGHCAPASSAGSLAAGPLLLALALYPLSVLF

[10] = molecular target: Intestinal-type alkaline phosphatase (Homo sapiens, UniProt P09923); assay: inhibition of human intestinal alkaline phosphatase – biochemical, dose response (AID 488876); type: functional
Intestinal-type alkaline phosphatase (Homo sapiens, UniProt P09923), sequence (P09923 whole entry): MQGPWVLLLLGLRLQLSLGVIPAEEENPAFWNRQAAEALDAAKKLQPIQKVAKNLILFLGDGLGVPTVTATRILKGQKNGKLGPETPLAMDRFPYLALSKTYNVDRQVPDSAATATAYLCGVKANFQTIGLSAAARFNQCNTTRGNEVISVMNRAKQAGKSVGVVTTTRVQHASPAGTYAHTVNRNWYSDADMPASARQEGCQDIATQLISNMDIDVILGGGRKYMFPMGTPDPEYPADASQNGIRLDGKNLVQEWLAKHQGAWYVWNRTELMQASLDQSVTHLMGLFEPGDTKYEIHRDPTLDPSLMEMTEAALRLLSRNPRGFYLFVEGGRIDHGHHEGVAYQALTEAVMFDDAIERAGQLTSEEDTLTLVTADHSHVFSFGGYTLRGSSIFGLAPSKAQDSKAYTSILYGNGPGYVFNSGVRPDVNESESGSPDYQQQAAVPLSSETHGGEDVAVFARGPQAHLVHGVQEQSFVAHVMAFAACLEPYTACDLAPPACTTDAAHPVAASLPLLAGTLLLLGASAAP

HEK293 [11] = assay: cells; conditions: Homo sapiens
HEK293 [12] = assay: cells; conditions: Homo sapiens; remark: listed apart in the source
[13] = cytotoxicity in HEK-293T cells, dose response, cytotoxicity control for BCR NF-kB inhibitor project, luminescence, B-cell screen hits (AID 489021); type: functional, cell-based;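 also: HEK-293T cells carrying an NF-kB luciferase reporter; cells exposed to compound for about 14 hours before viability readout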
Jurkat [14] = assay: SAR Analysis of small molecule inhibitors of […] specific antigen receptor-induced NF-kB activation in a Jurkat cell line using a luminescence assay - Set 3. [Related pubchem assays (depositor defined):AID435022, AID435025, AID465]; type: functional, cell-based; conditions: Homo sapiens
HEK293 [15] = assay: SAR Analysis of small molecule inhibitors of B-cell specific antigen receptor-induced NF-kB activation in a HEK-293T cell line using a luminescence assay - Set 2. [Related pubchem assays (depositor defined):AID435022, AID435025, AID489021]; type: functional, cell-based; conditions: Homo sapiens
HEK293 [16] = assay: cytotoxicity in HEK293T NF-kB-Luc cells, SAR follow-up, cytotoxicity control for NF-kB activator project, cell-based, resazurin fluorescence (AID 493251); type: functional; conditions: Homo sapiens, HEK293
[17] = molecular target: Voltage-dependent T-type calcium channel subunit alpha-1H (Homo sapiens, UniProt O95180); assay: Cav3.2 T-type channel blockers, cell-based, SynthLib3 library, HEK293 Cav3.2, fluorescence (AID 493041); type: functional
Voltage-dependent T-type calcium channel subunit alpha-1H, sequence (O95180 whole entry): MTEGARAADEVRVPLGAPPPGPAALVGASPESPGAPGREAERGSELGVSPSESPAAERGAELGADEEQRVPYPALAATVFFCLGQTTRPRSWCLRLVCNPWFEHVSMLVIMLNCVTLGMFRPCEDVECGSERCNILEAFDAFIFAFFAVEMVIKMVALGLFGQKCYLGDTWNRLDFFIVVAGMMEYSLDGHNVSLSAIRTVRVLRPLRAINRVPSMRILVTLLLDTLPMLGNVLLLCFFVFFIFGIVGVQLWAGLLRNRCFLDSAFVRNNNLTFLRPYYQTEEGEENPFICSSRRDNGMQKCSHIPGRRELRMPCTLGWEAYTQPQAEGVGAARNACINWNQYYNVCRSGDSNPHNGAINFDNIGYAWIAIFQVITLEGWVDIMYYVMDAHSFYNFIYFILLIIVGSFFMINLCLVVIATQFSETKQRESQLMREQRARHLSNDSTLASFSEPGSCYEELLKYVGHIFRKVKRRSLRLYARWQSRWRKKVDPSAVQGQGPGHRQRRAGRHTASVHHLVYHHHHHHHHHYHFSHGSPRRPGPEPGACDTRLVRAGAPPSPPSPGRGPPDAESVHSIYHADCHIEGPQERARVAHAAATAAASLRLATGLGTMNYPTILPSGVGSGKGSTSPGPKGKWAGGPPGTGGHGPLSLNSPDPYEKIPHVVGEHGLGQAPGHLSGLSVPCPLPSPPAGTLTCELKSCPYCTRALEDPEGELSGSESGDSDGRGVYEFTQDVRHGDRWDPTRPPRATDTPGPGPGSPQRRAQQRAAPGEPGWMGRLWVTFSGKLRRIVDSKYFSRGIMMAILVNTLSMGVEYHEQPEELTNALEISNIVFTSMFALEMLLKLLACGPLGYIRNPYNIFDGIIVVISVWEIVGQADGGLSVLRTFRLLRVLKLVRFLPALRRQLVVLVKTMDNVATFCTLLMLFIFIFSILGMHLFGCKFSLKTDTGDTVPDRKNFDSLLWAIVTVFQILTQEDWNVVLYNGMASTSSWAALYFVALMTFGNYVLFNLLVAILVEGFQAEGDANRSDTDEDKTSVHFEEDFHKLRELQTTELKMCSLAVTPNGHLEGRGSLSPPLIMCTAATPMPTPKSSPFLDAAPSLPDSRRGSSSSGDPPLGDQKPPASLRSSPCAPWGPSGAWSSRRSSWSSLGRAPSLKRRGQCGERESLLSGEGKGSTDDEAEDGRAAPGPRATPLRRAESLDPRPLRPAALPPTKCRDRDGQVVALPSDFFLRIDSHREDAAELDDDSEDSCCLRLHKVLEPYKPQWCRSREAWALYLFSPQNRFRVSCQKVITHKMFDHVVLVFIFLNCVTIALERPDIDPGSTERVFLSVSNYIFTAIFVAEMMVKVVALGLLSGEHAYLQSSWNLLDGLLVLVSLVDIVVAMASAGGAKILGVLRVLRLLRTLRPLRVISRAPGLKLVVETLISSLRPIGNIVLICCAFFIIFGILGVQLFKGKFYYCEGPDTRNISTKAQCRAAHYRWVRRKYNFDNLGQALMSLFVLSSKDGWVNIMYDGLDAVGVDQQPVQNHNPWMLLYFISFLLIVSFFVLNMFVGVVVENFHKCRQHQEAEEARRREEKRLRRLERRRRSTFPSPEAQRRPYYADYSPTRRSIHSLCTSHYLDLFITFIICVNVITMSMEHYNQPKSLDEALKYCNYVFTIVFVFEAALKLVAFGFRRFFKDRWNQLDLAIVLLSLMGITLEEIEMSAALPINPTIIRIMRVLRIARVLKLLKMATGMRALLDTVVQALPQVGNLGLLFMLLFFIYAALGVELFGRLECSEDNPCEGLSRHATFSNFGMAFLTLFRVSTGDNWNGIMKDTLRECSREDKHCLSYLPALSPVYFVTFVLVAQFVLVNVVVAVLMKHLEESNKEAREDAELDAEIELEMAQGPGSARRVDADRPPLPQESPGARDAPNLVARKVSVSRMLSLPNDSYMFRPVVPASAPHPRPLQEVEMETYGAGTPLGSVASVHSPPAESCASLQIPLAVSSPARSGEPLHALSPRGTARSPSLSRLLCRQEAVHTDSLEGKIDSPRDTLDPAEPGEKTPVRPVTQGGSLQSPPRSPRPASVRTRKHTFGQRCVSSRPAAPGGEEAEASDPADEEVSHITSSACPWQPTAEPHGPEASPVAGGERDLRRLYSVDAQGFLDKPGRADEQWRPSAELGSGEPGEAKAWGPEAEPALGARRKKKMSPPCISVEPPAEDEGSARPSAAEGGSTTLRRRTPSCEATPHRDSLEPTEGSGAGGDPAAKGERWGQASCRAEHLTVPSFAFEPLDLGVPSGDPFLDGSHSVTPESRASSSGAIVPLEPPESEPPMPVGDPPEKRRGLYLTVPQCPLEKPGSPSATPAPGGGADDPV

[18] = molecular target: Potassium voltage-gated channel subfamily KQT member 2 (Rattus norvegicus, UniProt O88943); assay: KCNQ2 channel activators, analog series, SAR follow-up, automated patch clamp, KCNQ2-CHO cells (AID 493113); type: functional
Potassium voltage-gated channel subfamily KQT member 2, sequence (O88943 whole entry): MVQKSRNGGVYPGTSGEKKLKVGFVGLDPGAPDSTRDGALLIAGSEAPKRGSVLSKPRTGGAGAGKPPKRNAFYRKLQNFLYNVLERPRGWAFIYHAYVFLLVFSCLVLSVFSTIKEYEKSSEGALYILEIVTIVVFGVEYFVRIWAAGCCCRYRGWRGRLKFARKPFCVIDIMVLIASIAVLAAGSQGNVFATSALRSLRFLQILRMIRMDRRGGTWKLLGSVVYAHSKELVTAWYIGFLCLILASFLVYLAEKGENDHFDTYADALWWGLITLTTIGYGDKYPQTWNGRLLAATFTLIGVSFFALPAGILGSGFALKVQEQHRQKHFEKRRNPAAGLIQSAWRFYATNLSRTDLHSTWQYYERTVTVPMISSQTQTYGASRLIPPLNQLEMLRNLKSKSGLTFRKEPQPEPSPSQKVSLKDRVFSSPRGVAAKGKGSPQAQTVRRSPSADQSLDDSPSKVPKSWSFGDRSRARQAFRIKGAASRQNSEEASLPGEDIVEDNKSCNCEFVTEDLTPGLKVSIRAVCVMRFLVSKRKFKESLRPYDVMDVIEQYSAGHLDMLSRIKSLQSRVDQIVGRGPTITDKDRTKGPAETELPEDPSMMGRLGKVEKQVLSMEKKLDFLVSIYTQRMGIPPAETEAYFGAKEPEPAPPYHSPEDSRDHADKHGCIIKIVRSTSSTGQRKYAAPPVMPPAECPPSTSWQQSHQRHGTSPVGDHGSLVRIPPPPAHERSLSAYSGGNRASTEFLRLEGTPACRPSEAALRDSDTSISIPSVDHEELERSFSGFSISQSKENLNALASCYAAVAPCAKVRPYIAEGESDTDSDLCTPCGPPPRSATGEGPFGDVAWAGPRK

Troponin, cardiac muscle = Troponin, cardiac muscle (Homo sapiens, UniProt P19429+P45379+P63316); assay: Fluorescence-based biochemical high throughput dose response assay for activators of the calcium sensitivity of cardiac Regulated Thin Filaments (RTF). [Related pubchem assays (depositor defined):AID493008, AID493018, AID504382, AID504383]; type: protein-complex assay
Cysteine protease ATG4B = molecular target: T3, Cysteine protease ATG4B (Homo sapiens, UniProt Q9Y4P1); type: functional;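 also: Fluorescence-based dose-response confirmation assay measuring inhibition of ATG4B activity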
T3 sequence (Q9Y4P1 whole entry): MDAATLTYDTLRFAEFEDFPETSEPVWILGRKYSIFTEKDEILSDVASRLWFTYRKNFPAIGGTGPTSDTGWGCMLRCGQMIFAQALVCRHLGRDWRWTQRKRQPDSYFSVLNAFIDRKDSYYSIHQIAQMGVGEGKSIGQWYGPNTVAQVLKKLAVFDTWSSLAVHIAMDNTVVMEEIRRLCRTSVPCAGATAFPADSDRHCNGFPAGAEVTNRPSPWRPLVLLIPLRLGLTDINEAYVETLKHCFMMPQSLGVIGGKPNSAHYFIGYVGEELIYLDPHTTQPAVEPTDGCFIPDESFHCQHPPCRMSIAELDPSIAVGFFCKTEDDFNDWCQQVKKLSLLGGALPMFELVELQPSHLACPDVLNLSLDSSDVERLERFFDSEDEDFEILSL

[19] = molecular target: T4, Microphthalmia-associated transcription factor (Homo sapiens, UniProt O75030); assay: TRPM1 promoter luciferase signal decrease, dose response, MITF inhibitor project, cell-based, SK-MEL-5, cherry-picked, set 3 (AID 493073); type: functional
T4 sequence (O75030 whole entry): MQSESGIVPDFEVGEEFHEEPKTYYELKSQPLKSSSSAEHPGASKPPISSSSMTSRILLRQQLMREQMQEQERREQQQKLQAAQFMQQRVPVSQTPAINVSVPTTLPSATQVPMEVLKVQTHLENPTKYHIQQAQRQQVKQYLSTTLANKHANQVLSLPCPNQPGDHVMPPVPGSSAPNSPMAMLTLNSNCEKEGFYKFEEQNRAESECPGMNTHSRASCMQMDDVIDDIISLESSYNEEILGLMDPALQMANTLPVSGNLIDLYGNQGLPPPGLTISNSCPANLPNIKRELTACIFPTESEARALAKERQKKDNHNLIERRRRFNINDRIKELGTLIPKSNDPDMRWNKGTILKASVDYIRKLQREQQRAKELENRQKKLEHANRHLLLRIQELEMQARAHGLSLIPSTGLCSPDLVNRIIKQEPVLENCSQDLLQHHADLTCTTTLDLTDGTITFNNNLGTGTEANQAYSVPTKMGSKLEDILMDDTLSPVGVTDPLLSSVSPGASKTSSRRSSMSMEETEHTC

Phospholipase A2 = Phospholipase A2 (Homo sapiens, UniProt P04054); type: functional;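 also: confirmatory dose-response counterscreen on phospholipase A2, testing hits that came from an ultra-high-throughput screen for ATG4B inhibitors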
Phospholipase A2, sequence (P04054 whole entry): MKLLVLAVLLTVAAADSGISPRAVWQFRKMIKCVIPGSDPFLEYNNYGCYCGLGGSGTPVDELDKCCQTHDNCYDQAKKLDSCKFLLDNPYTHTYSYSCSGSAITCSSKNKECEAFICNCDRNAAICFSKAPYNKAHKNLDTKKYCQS

A-375 [20] = assay: MITF: Counter assay: A375 proliferation Measured in Cell-Based System Using Plate Reader - 2084-03_Inhibitor_Dose_DryPowder_Activity. [Related pubchem assays (depositor defined):AID488944]; type: functional; conditions: Homo sapiens
A-375 [21] = assay: A375 melanoma cell viability reduction, dose response, counter-screen for MITF modulator project, cherry-pick samples, set 2 (AID 540335); type: functional, cell-based; conditions: Homo sapiens

COc1cc(-c2noc(C)c2C#Cc2ccc(N)cc2)cc(OC)c1OC
AC50 [1]: 0.219 µM (active)
AC50 [2]: 8 µM (inconclusive)

O=C(CSc1cccc2cccnc12)Nc1ccc(S(=O)(=O)N2CCOCC2)cc1
EC50 [3]: 1.58 µM (active)
EC50 [4]: 7.88 µM (active)
IC50 (Beta-galactosidase): > 66.6 µM (inactive)
IC50 (Apelin receptor): 11 µM (active)

O=C(NCCNCCO)C1(C(F)(F)F)C/C(=C\CCO)CCCO1 (stereo unspecified)
IC50 (Jurkat [5]): > 80 µM (inactive)
IC50 [6]: > 80 µM (inactive)

O=C(Nc1ccc(Cl)cc1)NC1CCCCC1Cc1ccco1 (stereo unspecified)
IC50 [7]: 2.69 µM (not active)
IC50 [8]: 12.2 µM (active)
IC50 [9]: > 100 µM (inactive)
IC50 [10]: > 100 µM (inactive)

C=CCO/C(O)=C1\C(C)=NC(SCC(=O)Nc2nccs2)=C(C#N)C1c1ccc(Cl)cc1 (stereo unspecified)
EC50 (HEK293 [11]): > 59.6 µM (inactive)
EC50 (HEK293 [12]): > 59.6 µM (inactive)

CSc1ccc(-c2nc(CSCC(=O)NC3CC3)c(C)o2)cc1
IC50 [13]: > 80 µM (inactive)
IC50 (Jurkat [14]): > 80 µM (inactive)
IC50 (HEK293 [15]): 49.7 µM (inactive)
IC50 (HEK293 [16]): > 80 µM (inactive)

O=C(NC1CCC2CN(CC3CCCC3)CC21)c1cc(Cl)cc(Cl)c1 (stereo unspecified)
EC50 [17]: 6.4 µM (active)

Cc1ccc(NC(=O)C2CC3CCC2C3)c(C)c1 (stereo unspecified)
EC50 [18]: 0.22 µM (active)

Cc1cc(C=C2C(=O)c3ccccc3C2=O)c(C)n1-c1ccccc1
EC50 (Troponin, cardiac muscle): > 7.94 µM (active)
IC50 (Cysteine protease ATG4B): 11 µM (active)
AC50 [19]: 3.78 µM (active)
IC50 (Phospholipase A2): 6.96 µM (active)
AC50 (A-375 [20]): > 11 µM (active)
AC50 (A-375 [21]): > 11 µM (active)
